This passage reports IC50 results from patent publication US12252493B2, “Imidazo[1,2-c]pyrimidine derivatives as PRC2 inhibitors for treating cancer” (Mirati Therapeutics, Inc., priority 2019, dated 2025).

The structures appear in SMILES notation.

In assay [1] the target is purified human, His-tagged PRC2 complex (Homo sapiens (Human), UniProt O75530). Briefly: Hot Spot HMT assay of PRC2 enzymatic activity (tritiated methyl transfer from SAM to core histone). Type of assay: biochemical. The following applies: 10 nM purified PRC2 complex, 0.05 mg/ml core histone H3, 1 uM 3H-SAM, 1 hr at 30° C.; read-out: IC50, Inhibition of PRC2-mediated Enzymatic Activity. The procedure: Ten-point dose-response curves for compounds of the present invention were determined using a Hot Spot HMT assay (Reaction Biology Corp; see Horiuchi et al., Assay Drug Dev Technol. (2013) 4: 227-236 doi: 10.1089/adt.2012.480). The assay uses purified human, His-tagged PRC2 complex, including N-terminal His-tagged EZH2 enzyme, N-terminal Flag-tagged embryonic ectoderm development protein (EED), N-terminal His-tagged suppressor of zeste 12 (SUZ12), N-terminal His-tagged AEBP2, and N-terminal His-tagged RbAp48. In this assay, the transfer of the tritiated methyl group from radiolabeled S-adenosyl methionine (SAM) to purified core histone protein by EZH2 is quantitated after filtration to determine the activity of the core PRC2 complex in the presence and absence of compound.
Briefly, compounds of the present invention were solubilized in DMSO and a series of 10, three-fold serial dilutions were made for each compound in 15% DMSO. The initial starting concentration for the serial dilutions of each compound was 1.0 μM. Control samples lacking compound, EZH2 enzyme or various reaction components also were prepared and processed in parallel with compound test samples. SAH (S-(5-adenosyl)-L-homocysteine) was used as a positive control for assay validation.
An aliquot of each serial dilution of test compound was added to deep 384 well plate using Acoustic Technology instrument (Echo 550, LabCyte) containing reaction buffer (50 mM Tris-HCl (pH 8.)), 0.01% Brij35, 1 mM EDTA, 1 mM DTT, 1 mM PMSF and 1% DMSO), 10 nM purified PRC2 complex and 0.05 mg/ml core histone H3 in a 5 μl volume. The reaction was mixed gently and then pre-incubated for 20 min at 30° C. The enzymatic reaction was initiated by adding 1 uM S-Adenosyl-L-[methyl ^3H]methionine and incubated for 1 hr at 30° C. After 1 hr, the reaction product was detected using a filter binding method and the amount of tritiated H3 core histone was quantitated using a scintillation counter. The IC50 value for each compound was determined from each 10-point dose-response curve using GraphPad Prism software and the results for exemplary compounds of Formula (I) are shown in Table 5. Key: A=≤250 nM; B=>250 nM—≤500 nM; and C=>500 nM—≤2 μM.

The subject of assay [2] is PRC2-mediated histone H3 methylation (H3 Lys27 trimethylation) in Pfeiffer cells expressing mutant EZH2 (A677G). As to the kind of experiment: Tri-Methyl Histone H3 (Lys 27) sandwich ELISA in Pfeiffer cells. Type of assay: cell-based, human. The following applies: Homo sapiens; Pfeiffer cells, 96 hours incubation, ELISA; read-out: IC50, Inhibition of EZH2-mediated Histone H3 Trimethylation. The source says: The Pfeiffer cell line was established from a […] from a patient having metastatic diffuse large B-cell lymphoma (DLBCL). This cell line expresses a mutant form of the EZH2 enzyme (A677G) that results in enhanced EZH2 activity leading to increased methylation of histone H3 Lys27. Increased trimethylation of histone H3 Lys27 is believed to be implicated in tumorgenesis and poor clinical prognosis in lymphomas (McCabe et al., (2012) Nature 492:108-112).
Inhibition of PRC2-mediated histone H3 methylation by compounds of Formula (I) was measured by ELISA using a Tri-Methyl Histone H3 (Lys 27) Sandwich ELISA Kit (Cell Signaling Tech #7866C) in accordance with the manufacturer's instructions. Briefly, Pfeiffer cells were cultured in RPMI medium supplemented with 10% fetal bovine serum and 1% penicillin and 1% streptomycin in 96 well culture plates at 37° C. to a density of 8000 cells/90 μl/well and the cells were harvested. A series of 3-fold serial dilutions of each test compound of Formula (I) were prepared in RPMI medium and added to the cells at final concentrations ranging from 1 μM to 0.15 nM. The plates were incubated at 37° C. for 96 hours.
After incubation, the cells were pelleted by centrifugation in a pre-cooled 4° C. rotor at 1,100 rpm for 10 min and the supernatant was removed by aspiration. The cell pellet was resuspended in 55 μl of Lysis Buffer (0.4M HCl) and incubated on ice with periodic shaking for 30 minutes. The lysed cells were subjected to centrifugation at 4,200 rpm for 10 min at 4° C. and the supernatant containing acid-soluble proteins was collected and the remainder discarded. The acid-soluble proteins were brought to a neutral pH by the addition of 20 μl of Neutralization Buffer (1 M Sodium phosphate, dibasic (pH 12.5), 2.5 mM DTT and 1 mM PMSF) and the neutralized lysates were analyzed by ELISA.
A 65 μl aliquot of each cell lysate was added to a well of a microwell strip, the microwells were sealed using tape and incubated either at 37° C. for two hours or at 4° C. overnight. After incubation, the tape was removed at the microwells were washed four times using 200 μl of 1× Wash Buffer. To each washed microwell, a 100 μl aliquot of an anti-trimethyl histone H3 Lys27 Detection Antibody solution was added and the microwells were incubated at 37° C. for one hour. The Detection Antibody solution was removed by aspiration and the wells were washed four times each using 200 μl of 1× Wash Buffer.
A 100 μl aliquot of an HRP-linked secondary antibody was added to each well, the wells were sealed with tape and incubated at 37° C. for 30 min. The HRP-linked secondary antibody solution was removed by aspiration and the wells were washed four times using 200 μl of 1× Wash Buffer. A 100 μl aliquot of a TMB substrate was added to each well, the wells were sealed with tape and incubated at 37° C. for 10 min or 25° C. for 30 min. The reaction was stopped by the addition of 100 μl aliquot of a STOP solution and the plate was shaken briefly. The degree of histone H3 trimethylation was determined using a spectrophotometric readout by measuring the absorbance at 450 nm and then calculating the amount of trimethylated histone H3. Key: A=≤250 nM; B=>250 nM-≤500 nM; and C=>500 nM-≤5 μM.

The test system of assay [3] is Karpas 422 cells expressing mutant EZH2 (Y641N). Briefly: Karpas 422 cell viability (Cell Titre Glo) assay. The format is cell-based, human. The conditions noted are these: Homo sapiens, CTG viability, time point (Day 4, Day 7 or Day 11) not given, read-out: IC50, Inhibiting Proliferation of Cells Expressing an Activating Mutant Form of EZH2. The procedure:
Karpas 422 cell line is a human B cell non-Hodgkin's lymphoma cell line established from a patient having DLBCL. This EZH2 heterozygotic cell line expresses a mutant form of EZH2 enzyme (Y641N) that increases histone H3 methylation and this mutation has been implicated in the tumorgenesis of lymphomas, such as DLBCL.
Karpas 422 cells (PHE cat no., 06101702) were cultured in RPMI medium supplemented with 20% fetal bovine serum and 1% penicillin/1% streptomycin and plated at a density of 1000 cells/90 μl/well in 96 well white assay plates. A dose response curve for compounds of the present invention was determined by adding a 10 μl aliquot of stock solutions of varying concentrations of compounds to the same medium in each well, over a concentration range of 10 μM using 3-fold dilutions to a final concentration of 1.5 nM. The plates were incubated at 37° C. for predetermined time periods, Day 4, Day 7, or Day 11, and the viability of the cells was measured using a CTG assay kit (Cell Titre Glo; Promega cat. no G7573) on Day 4 and Day 7 in accordance with the manufacturer's instructions.
For the viability assay for the Day 11 plates, the plates were subjected to centrifugation at 1100 rpm for five minutes on Day 7 and the supernatant was removed by aspiration. The cells were resuspended in 90 μl aliquot of the appropriate growth medium lacking the compound followed by addition of 10 μl of a 10× stock of the same compound at the same concentration. The viability of the Day 11 cells was measured using the CTG assay kit described above in accordance with the manufacturer's instructions. The IC50 values for each compound at each predetermined time point were calculated using Graph pad PRISM software and the results are shown in Table 7. Key: A=≤250 nM; B=>250 nM-≤500 nM; C=>500 nM-≤5 μM and N.D.=not determined.

purified human, His-tagged PRC2 complex, sequence (Q15910 whole entry): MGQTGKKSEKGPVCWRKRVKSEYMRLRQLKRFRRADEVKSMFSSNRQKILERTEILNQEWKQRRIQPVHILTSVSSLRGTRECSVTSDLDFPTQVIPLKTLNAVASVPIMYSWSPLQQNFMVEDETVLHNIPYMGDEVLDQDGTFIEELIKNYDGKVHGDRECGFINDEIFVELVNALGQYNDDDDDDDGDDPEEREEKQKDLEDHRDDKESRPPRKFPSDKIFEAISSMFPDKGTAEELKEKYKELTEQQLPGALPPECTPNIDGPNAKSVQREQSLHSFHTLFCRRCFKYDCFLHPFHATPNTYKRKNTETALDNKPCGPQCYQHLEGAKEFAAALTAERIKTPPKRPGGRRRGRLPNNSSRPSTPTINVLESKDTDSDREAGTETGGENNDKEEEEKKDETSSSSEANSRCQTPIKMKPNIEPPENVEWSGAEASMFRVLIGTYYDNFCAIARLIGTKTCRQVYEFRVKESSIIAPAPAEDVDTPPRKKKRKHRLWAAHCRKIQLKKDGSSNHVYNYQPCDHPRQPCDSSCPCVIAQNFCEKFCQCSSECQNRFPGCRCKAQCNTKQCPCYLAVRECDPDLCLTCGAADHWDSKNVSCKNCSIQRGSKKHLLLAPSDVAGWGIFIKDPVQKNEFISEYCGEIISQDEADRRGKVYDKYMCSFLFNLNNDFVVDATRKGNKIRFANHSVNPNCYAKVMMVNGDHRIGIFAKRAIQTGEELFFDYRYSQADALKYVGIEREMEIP
purified human, His-tagged PRC2 complex, sequence (O75530 whole entry): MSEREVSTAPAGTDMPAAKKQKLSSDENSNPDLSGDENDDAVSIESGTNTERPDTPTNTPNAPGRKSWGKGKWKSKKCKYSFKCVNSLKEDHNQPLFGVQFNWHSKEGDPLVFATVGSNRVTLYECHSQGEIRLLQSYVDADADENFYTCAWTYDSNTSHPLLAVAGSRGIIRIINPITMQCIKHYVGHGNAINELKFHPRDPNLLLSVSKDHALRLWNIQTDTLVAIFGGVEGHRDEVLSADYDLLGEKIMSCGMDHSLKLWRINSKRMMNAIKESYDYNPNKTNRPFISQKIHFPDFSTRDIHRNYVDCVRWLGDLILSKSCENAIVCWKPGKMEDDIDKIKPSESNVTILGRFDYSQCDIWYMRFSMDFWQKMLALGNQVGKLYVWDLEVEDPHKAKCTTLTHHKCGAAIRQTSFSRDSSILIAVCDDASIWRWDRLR
purified human, His-tagged PRC2 complex, sequence (Q15022 whole entry partner): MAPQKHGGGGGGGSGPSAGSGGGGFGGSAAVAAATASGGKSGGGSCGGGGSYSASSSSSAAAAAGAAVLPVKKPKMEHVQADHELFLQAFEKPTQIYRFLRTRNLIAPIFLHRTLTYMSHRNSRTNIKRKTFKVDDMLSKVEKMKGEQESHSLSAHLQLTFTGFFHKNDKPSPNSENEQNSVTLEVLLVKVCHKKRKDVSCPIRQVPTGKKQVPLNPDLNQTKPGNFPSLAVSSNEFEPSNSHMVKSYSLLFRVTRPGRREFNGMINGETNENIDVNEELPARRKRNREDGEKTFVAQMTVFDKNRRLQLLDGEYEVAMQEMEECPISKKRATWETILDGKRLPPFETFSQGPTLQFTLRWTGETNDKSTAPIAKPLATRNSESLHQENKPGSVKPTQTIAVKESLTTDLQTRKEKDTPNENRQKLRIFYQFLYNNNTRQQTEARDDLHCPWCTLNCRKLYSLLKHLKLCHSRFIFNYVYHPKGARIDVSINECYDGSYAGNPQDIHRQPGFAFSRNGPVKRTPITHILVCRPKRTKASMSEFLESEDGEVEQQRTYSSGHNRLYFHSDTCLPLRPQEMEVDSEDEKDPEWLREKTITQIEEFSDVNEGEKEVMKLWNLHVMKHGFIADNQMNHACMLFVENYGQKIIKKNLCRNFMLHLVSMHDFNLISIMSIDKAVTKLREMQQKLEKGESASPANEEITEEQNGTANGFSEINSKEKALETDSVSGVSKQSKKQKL
purified human, His-tagged PRC2 complex, sequence (Q6ZN18 whole entry partner): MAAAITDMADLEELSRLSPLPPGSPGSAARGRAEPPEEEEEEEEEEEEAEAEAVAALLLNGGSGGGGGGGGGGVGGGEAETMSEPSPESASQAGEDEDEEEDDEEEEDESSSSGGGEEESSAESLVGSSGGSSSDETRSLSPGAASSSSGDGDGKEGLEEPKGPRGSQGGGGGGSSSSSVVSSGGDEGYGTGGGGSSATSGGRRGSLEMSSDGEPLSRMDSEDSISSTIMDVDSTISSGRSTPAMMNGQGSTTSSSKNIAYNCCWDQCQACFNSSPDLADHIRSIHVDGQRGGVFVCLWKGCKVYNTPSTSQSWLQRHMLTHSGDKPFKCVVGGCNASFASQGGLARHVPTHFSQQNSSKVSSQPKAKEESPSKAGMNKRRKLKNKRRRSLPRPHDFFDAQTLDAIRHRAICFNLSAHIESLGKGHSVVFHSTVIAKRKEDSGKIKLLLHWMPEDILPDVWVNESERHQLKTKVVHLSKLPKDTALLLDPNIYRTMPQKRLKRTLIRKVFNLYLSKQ
purified human, His-tagged PRC2 complex, sequence (Q09028 whole entry partner): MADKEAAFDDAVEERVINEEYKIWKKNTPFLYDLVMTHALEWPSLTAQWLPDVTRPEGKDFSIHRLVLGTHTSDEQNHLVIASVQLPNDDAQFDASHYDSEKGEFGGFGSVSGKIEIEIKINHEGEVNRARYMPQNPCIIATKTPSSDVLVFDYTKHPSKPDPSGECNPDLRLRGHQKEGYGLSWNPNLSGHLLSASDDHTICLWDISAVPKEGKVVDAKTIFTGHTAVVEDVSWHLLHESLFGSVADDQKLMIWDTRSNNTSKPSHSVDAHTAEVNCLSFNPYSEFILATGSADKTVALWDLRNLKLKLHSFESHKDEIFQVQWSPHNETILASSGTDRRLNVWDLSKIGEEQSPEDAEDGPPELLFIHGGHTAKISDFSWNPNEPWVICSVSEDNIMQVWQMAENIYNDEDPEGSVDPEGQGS

With `Cc1cc(-c2cnc(NCc3c(F)ccc4c3CCO4)n3cc(C(C)N)nc23)n(C)n1` (single isomer, unassigned) [Example 11, 2-(1-aminoethyl)-8-(1,3-dimethyl-1H-pyrazol-5-yl)-N-((5-fluoro-2,3-dihydrobenzofuran-4-yl)methyl)imidazo[1,2-c]pyrimidin-5-amine], the IC50 in assay [1] was 500 to 2000 nM; in assay [2] it was below 250 nM; in assay [3], below 250 nM.

Consider `Cc1cc(-c2cnc(NCc3c(F)ccc4c3CCO4)n3cc(CO)nc23)n(C)n1` [Example 1, (8-(1,3-dimethyl-1H-pyrazol-5-yl)-5-(((5-fluoro-2,3-dihydrobenzofuran-4-yl)methyl)amino)imidazo[1,2-c]pyrimidin-2-yl)methanol], for which the IC50 in assay [1] and in assay [3] was below 250 nM throughout.

With `Cc1cc(S(C)(=O)=O)ccc1-c1cnc(NCc2c(F)ccc3c2CCO3)n2cc(CO)nc12` [Example 2, (5-(((5-fluoro-2,3-dihydrobenzofuran-4-yl)methyl)amino)-8-(2-methyl-4-(methylsulfonyl)phenyl)imidazo[1,2-c]pyrimidin-2-yl)methanol], the IC50 in assay [1] is below 250 nM; in assay [3] it was 500 to 5000 nM.

`Cc1ncccc1-c1cnc(NCc2c(F)ccc3c2CCO3)n2cc(CO)nc12` [Example 3, (5-(((5-fluoro-2,3-dihydrobenzofuran-4-yl)methyl)amino)-8-(2-methylpyridin-3-yl)imidazo[1,2-c]pyrimidin-2-yl)methanol]: the IC50 fell in the range of 500 to 2000 nM in assay [1] and 500 to 5000 nM in assay [3].

Turning to `OCc1cn2c(NCc3c(F)ccc4c3CCO4)ncc(-c3ccc(C4CC4)nc3)c2n1` [Example 4, (8-(6-cyclopropylpyridin-3-yl)-5-(((5-fluoro-2,3-dihydrobenzofuran-4-yl)methyl)amino)imidazo[1,2-c]pyrimidin-2-yl)methanol], the IC50 in assay [1] lay within 500 to 2000 nM; in assay [3], 500 to 5000 nM.

For `COc1ccc(-c2cnc(NCc3c(F)ccc4c3CCO4)n3cc(CO)nc23)c(C)n1` [Example 5, (5-(((5-fluoro-2,3-dihydrobenzofuran-4-yl)methyl)amino)-8-(6-methoxy-2-methylpyridin-3-yl)imidazo[1,2-c]pyrimidin-2-yl)methanol], the results for the IC50 in assay [1] and in assay [3] were 500 to 2000 nM and 250 to 500 nM, respectively.

Consider `Cn1nccc1-c1cnc(NCc2c(F)ccc3c2CCO3)n2cc(CO)nc12` [Example 6, (5-(((5-fluoro-2,3-dihydrobenzofuran-4-yl)methyl)amino)-8-(1-methyl-1H-pyrazol-5-yl)imidazo[1,2-c]pyrimidin-2-yl)methanol], for which the IC50 in assay [1] was 250 to 500 nM; in assay [2], below 250 nM.

In the case of `Cc1cc(-c2cnc(NCc3c(F)ccc4c3CCO4)n3cc(C(O)c4ccccc4)nc23)n(C)n1` (centres unmarked) [Example 8], the IC50 in assay [1] was in the range of 250 to 500 nM.

`NCc1cn2c(NCc3c(F)ccc4c3CCO4)ncc(-c3cccc(F)c3)c2n1` [Example 14, 2-(aminomethyl)-N-((5-fluoro-2,3-dihydrobenzofuran-4-yl)methyl)-8-(3-fluorophenyl)imidazo[1,2-c]pyrimidin-5-amine]: the IC50 was 250 to 500 nM in assay [1] and 500 to 5000 nM in assay [3].

Consider `CNCc1cn2c(NCc3c(F)ccc4c3CCO4)ncc(-c3cc(C)nn3C)c2n1` [Example 25, 8-(1,3-dimethyl-1H-pyrazol-5-yl)-N-((5-fluoro-2,3-dihydrobenzofuran-4-yl)methyl)-2-((methylamino)methyl)imidazo[1,2-c]pyrimidin-5-amine], for which the IC50 in assay [1] and in assay [3] was 250 to 500 nM each time.

For `Cc1cc(-c2cnc(NCc3c(F)ccc4c3CCO4)n3cc(CN(C)C)nc23)n(C)n1` [Example 26, 8-(1,3-dimethyl-1H-pyrazol-5-yl)-2-((dimethylamino)methyl)-N-((5-fluoro-2,3-dihydrobenzofuran-4-yl)methyl)imidazo[1,2-c]pyrimidin-5-amine], the IC50 in assay [1] lay within 500 to 2000 nM.

As for `Cc1cc(-c2cnc(NCc3c(F)ccc4c3CCO4)n3cc(C(N)C(F)(F)F)nc23)n(C)n1` (centres unmarked) [Example 42, 2-(1-amino-2,2,2-trifluoroethyl)-8-(1,3-dimethyl-1H-pyrazol-5-yl)-N-((5-fluoro-2,3-dihydrobenzofuran-4-yl)methyl)imidazo[1,2-c]pyrimidin-5-amine], the IC50 in assay [1] fell in the range of 250 to 500 nM.

Take `Cc1cc(-c2cnc(NCc3c(F)ccc4c3CCO4)n3cc(-c4nn[nH]n4)nc23)n(C)n1` [Example 43, 8-(1,3-dimethyl-1H-pyrazol-5-yl)-N-((5-fluoro-2,3-dihydrobenzofuran-4-yl)methyl)-2-(2H-tetrazol-5-yl)imidazo[1,2-c]pyrimidin-5-amine]: the IC50 in assay [1] is below 250 nM.
